The subject of assay [1] is HEK293 cells. As to the kind of experiment: Cell cycle analysis by FACS of HEK293 cells. Type of assay: cell-based. Conditions: for Percent of Cells in G1 / Percent of Cells in G2/M / Percent of Cells in S: treated 16 to 24 hrs; for accumulation of cells in G2/M: HEK293, concentrations as in Table 1; for FACS profile / cell cycle effect: HEK293, FACS. How it is done: Fluorescence-activated cell sorting (FACS) analysis was used to examine the cell cycle state when the cells were incubated with compounds of formula (I) as well as several control compounds, including DMSO, noscapine (a known G2/M inhibitor), and colchicine (a known G2/M inhibitor).
In particular, HEK293 cells were cultured in DMEM media (Celigro) supplemented with 10% Fetal Bovine Serum (Tissue Culture Biologicals) and 1× Penicillin/Streptomycin/Glutamine (Gibco). The cells were grown at 37° C. with 5% CO2, plated in six-well plates at 2.5×10^6 cells/well, and treated for 16 to 24 hrs with the compounds at the concentrations shown in Table 1, below. The cells were then triturated off the bottom of the wells, washed 1× with PBS, then fixed with 70% ethanol, and stored at 4° C. before staining and FACS analysis.
The DNA content of cells was determined using a FacsVantage SE flow cytometry system (Becton Dickinson, San Jose, Calif.) and a Cellular DNA Flow Cytometric Analysis Kit (Roche Applied Science, Indianapolis, Ind.). Cell cycle analysis was performed using Cylchred 1.0.2 software.
(Flow cytometry measures light scatter and fluorescence of single cells or particles in a stream.)

For assay [2], the target named is T1, topoisomerase I (Homo sapiens, UniProt P11387).
T1 construct: purchased Sigma-Aldrich
T1 sequence (P11387 1-765): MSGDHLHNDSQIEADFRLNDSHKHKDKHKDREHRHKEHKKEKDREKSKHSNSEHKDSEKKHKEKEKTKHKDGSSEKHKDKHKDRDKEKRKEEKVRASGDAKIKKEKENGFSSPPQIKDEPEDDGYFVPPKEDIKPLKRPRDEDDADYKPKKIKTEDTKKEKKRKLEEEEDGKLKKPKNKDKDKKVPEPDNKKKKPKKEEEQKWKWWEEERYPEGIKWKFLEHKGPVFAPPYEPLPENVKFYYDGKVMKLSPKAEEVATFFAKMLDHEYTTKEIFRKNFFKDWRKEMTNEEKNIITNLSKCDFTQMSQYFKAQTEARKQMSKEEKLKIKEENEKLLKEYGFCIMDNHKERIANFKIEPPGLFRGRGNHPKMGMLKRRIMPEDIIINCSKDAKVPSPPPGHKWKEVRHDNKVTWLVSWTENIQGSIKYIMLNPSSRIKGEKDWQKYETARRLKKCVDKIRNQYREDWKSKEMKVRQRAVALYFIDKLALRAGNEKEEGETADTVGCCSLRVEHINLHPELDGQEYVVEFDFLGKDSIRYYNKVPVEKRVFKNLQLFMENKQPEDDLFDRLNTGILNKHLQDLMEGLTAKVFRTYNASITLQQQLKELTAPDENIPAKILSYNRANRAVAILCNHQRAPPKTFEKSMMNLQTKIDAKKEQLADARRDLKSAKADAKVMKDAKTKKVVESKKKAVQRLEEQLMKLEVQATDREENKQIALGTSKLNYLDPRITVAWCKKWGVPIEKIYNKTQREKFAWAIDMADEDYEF
Description: Topoisomerase I assay (supercoiled pBluescript DNA, agarose gel). Type of assay: biochemical. Conditions: in vitro, FIG. 2. How it is done:
The ability of compounds that cause S-phase cell cycle arrest to inhibit topoisomerase I and topoisomerase II was examined. Analysis of topoisomerase activity was performed in 20 μl reactions with either topoisomerase I reaction buffer (10 mM TRIS-HCl, pH 7.5; 100 mM NaCl; 1 mM 2-mercaptoethanol) or topoisomerase II reaction buffer (50 mM Tris-HCl, pH 8; 120 mM KCl; 10 mM MgCl2; 0.5 mM dithiothreitol; 0.5 mM ATP; 30 μg BSA/ml) containing 125 ng supercoiled pBluescript DNA and either 2 U topoisomerase I (Sigma-Aldrich) or topoisomerase II (Topogen Inc.). After reaction at 37° C. for 20 minutes, the reactions were terminated through the addition of sodium dodecyl sulfate to 1% w/v and heating to 65° C. for 10 minutes. Proteinase K was then added to 10 μg/ml and digestion was allowed to proceed at 37° C. for 20 minutes before electrophoresis of the DNA in 0.8% agarose gels containing 0.5 μg/ml ethidium bromide for 18 hours at 75V in 0.5×TBE buffer. DNA was then visualized using a UV-transilluminator and the image was captured using a BioRad CCD camera and gel documentation system.

Assay [3] has as its system non-stimulated peripheral blood lymphocytes (PBLs). As to the kind of experiment: Cell cycle analysis on non-stimulated peripheral blood lymphocytes. Type of assay: cell-based. Conditions: PBL (non-stimulated), 25 μM, 16 to 24 hrs. How it is done: (§1) The effects of compounds 5a,b on the cell cycle were further examined on phytohemagglutinin (PHA)-stimulated and non-stimulated peripheral blood lymphocytes (PBLs).
(§2) PBLs were cultured in DMEM media (Celigro) supplemented with 10% Fetal Bovine Serum (Tissue Culture Biologicals) and 1× Penicillin/Streptomycin/Glutamine (Gibco). The cells were grown at 37° C. with 5% CO2, plated in six-well plates at 2.5-5×10^6 cells/well, and treated for 16 to 24 hrs with the compounds at the concentrations shown in Table 2, below, with or without 1 μg/ml PHA (Sigma). The cells were then triturated off the bottom of the wells, washed 1× with PBS, then fixed with 70% ethanol, and stored at 4° C. before staining and FACS analysis.

Assay [4] deals with phytohemagglutinin (PHA)-stimulated peripheral blood lymphocytes (PBLs). Description: Cell cycle analysis on phytohemagglutinin-stimulated peripheral blood lymphocytes. Type of assay: cell-based. Conditions: PHA-stim. PBL (1 μg/ml PHA), 25 μM, 16 to 24 hrs. How it is done:
as §1, §2

In assay [5] the test system is HEK293 cells. Description: HEK293 cell viability, CellTiter 96 Aqueous One Solution Cell Proliferation assay. Type of assay: cell-based. Conditions: Homo sapiens, HEK293, 48 h. How it is done:
The effect of various doses of compounds 5a, 5a,b, and 9a on the viability of HEK293 cells was examined using the CellTiter 96 Aqueous One Solution Cell Proliferation assay (Promega). The HEK293 cells were cultured in DMEM media (Cellgro) or phenol red-free DMEM (Gibco) supplemented with 10% Fetal Bovine Serum (Tissue Culture Biologicals) and 1× Penicillin/Streptomycin/Glutamine (Gibco). The cells were grown at 37° C. with 5% CO2. HEK293 cells were seeded into each well of a 96-well plate (5000 cells/well) and incubated overnight to allow the cells to attach. The culture media was removed and replaced with 100 μl of phenol red-free media containing the compounds 5a, 5a,b, and 9a at various concentrations. The cells were allowed to grow in the presence of the compounds for 48 hrs. At the end of the treatment, 20 μl of CellTiter 96 Aqueous One Solution reagent was added directly into each well, and the cells were incubated at 37° C. for 2 hrs. This reagent converts to a form that absorbs light at 490 nm by living cells. Thus, absorbance at 490 nm is proportional to the number of viable cells. The 490 nm absorbance was measured on a BioRad plate reader. Control wells containing no cells were included in this assay to correct for background absorbance.

Assay [6] relates to HTS-tubulin (90% tubulin plus 10% microtubule associated proteins). As to the kind of experiment: Microtubule polymerization assay (turbidity at 340 nm). Type of assay: biochemical. Conditions: absorbance at 340 nm, 30 minutes, 37° C., FIG. 3. How it is done: Microtubule polymerization assays were performed to determine if compounds, such as compound 9a, cause G2/M cell cycle arrest by affecting microtubule dynamics. A microtubule polymerization assay was performed that takes advantage of the observation that there is an increase in turbidity that can be measured at 340 nm as tubulin heterodimers polymerize to form microtubules. In brief, HTS-tubulin (90% tubulin plus 10% microtubule associated proteins; Cytoskeleton Inc., Denver, Colo.) was resuspended in G-PEM buffer (80 mM Pipes, pH 6.9; 2 mM MgCl2; 0.5 mM EDTA; 1 mM GTP) to 10 mg/ml. This suspension was clarified by centrifugation for 10 min. at 225,000×g. The supernatant was then diluted with G-PEM buffer to 2 mg/ml and 100 μl of this solution was added to the appropriate number of ½-area wells in a 96-well format (Corning). Each compound (10 μl of a 10× final concentration in 10% DMSO) was added to the wells in duplicate and immediately put into a pre-warmed (37° C.) Spectromax 190 plate reader. The absorbance was read at 340 nm immediately (time=0) and every minute thereafter for 30 minutes.
The tubulin mix was incubated in the presence of paclitaxel (a microtubule stabilizing agent), nocodazole (a microtubule destabilizing agent), vehicle control (DMSO), or varying concentrations of compound 9a (FIG. 3).

pEC50: −log10 of the molar value. Like-named read-outs stand apart in the source and are kept apart here.

Data on ten compounds can be found in US20050049278A1, “Benzo[1,3]dioxole compounds, pharmaceutical compositions thereof, and processes of making and using the same” (priority 2003, published 2005).

Take `COc1cc2c(c(OC)c1OC)-c1ccc(OC)c(=O)cc1[C@@H](NC(C)=O)CC2` [colchicine, reference compound]: in assay [1] (HEK293, 10 μM), the “Percent of Cells in G1” value is 2.7%, the “Percent of Cells in G2/M” value is 83.4% and the “Percent of Cells in S” value was found to be 13.9%.

Regarding `COc1ccc2c(c1)C(=O)O[C@@H]2[C@H]1c2c(cc3c(c2OC)OCO3)CCN1C` [Compound 12], in assay [1] (HEK293, 1 μM), the “Percent of Cells in G1” value was 3.8%, the “Percent of Cells in G2/M” value is 89.8% and the “Percent of Cells in S” value worked out at 6.4%. Further, the “accumulation of cells in G2/M” value in assay [1] is around 90%.

With `COc1ccc2c(c1C#N)C(=O)O[C@@H]2[C@H]1c2c(cc3c(c2OC)OCO3)CCN1C` [Compound 10, 5-methoxy-1-(4-methoxy-6-methyl-5,6,7,8-tetrahydro-[1,3]dioxolo-[4,5-g]isoguinolin-5-yl)-3-oxo-1,3-dihydro-isobenzofuran-4-carbonitrile], in assay [1] (HEK293, 50 μM), the “Percent of Cells in G1” value is on record as 2%, the “Percent of Cells in G2/M” value amounted to 89.2% and the “Percent of Cells in S” value is 8.8%. The “accumulation of cells in G2/M” value in assay [1] is given as around 90%.

In the case of `COc1cc([C@@H]2c3cc4c(cc3[C@@H](O[C@@H]3O[C@@H]5CO[C@@H](C)O[C@H]5[C@H](O)[C@H]3O)[C@H]3COC(=O)[C@H]23)OCO4)cc(OC)c1O` [etoposide], the “inhibition of topoisomerase I activity” value in assay [2] was “neither etoposide nor noscapine inhibited”.

Take `COc1ccc2c(c1S)C(=O)O[C@@H]2[C@H]1c2c(cc3c(c2OC)OCO3)CCN1C` [Compound 13]: in assay [1] (HEK293, 5 μM), the “Percent of Cells in G1” value amounted to 3.2%, the “Percent of Cells in G2/M” value came to 89.6% and the “Percent of Cells in S” value is reported as 7.2%. Further, the “accumulation of cells in G2/M” value in assay [1] is reported as around 90%.

With `COc1ccc2c(c1OCc1ccccc1)C(=O)OC2[C@H]1c2c(cc3c(c2OC)OCO3)CCN1C` (some centres unmarked) [6a,b], in assay [1] (HEK293, 50 μM), the “Percent of Cells in G1” value was found to be 12.1%, the “Percent of Cells in G2/M” value was 16.7% and the “Percent of Cells in S” value amounted to 71.2%. In addition, the “FACS profile / cell cycle effect” value in assay [1] is recorded as “accumulating in S-phase”.

Turning to `COc1cc(COc2c(OC)ccc3c2C(=O)OC3[C@H]2c3c(cc4c(c3OC)OCO4)CCN2C)cc(OC)c1OC` (some centres unmarked) [Compound 5a,b], the “Percent of Cells in G1” value is recorded as 13.1% in assay [1] (HEK293, 50 μM); 91.6% in assay [3]; 69.3% in assay [4]. The “Percent of Cells in G2/M” value in assay [1] (HEK293, 50 μM) came to 6.3%; in assay [3], 1.5%; in assay [4], 5.4%. Moreover, the “Percent of Cells in S” value in assay [1] (HEK293, 50 μM) amounted to 80.7%; in assay [3], 6.8%; in assay [4], 25.3%. For the same compound, the “FACS profile / cell cycle effect” value in assay [1] is reported as “accumulate more cells in S-phase than 6a,b”. For the same compound, the negative logarithm of the EC50 (pEC50) in assay [5] was 6.40; in assay [5] (text summary), above 6.00.

As to `COc1cc(COc2c(OC)ccc3c2C(=O)O[C@@H]3[C@H]2c3c(cc4c(c3OC)OCO4)CCN2C)cc(OC)c1OC` [Compound 5a], the pEC50 was 6.52 in assay [5] (read-out: EC50) and above 6.00 in assay [5] (text summary, read-out: EC50).

`CC(=O)O[C@H]1C(=O)[C@@]2(C)[C@H]([C@H](OC(=O)c3ccccc3)[C@]3(O)C[C@H](OC(=O)[C@H](O)[C@@H](NC(=O)c4ccccc4)c4ccccc4)C(C)=C1C3(C)C)[C@]1(OC(C)=O)CO[C@@H]1C[C@@H]2O` [Paclitaxel, reference compound]: the negative-log EC50 (pEC50) in assay [5] (read-out: EC50) is above 7.00. Besides, in assay [6], the “effect on microtubule polymerization” value is recorded as “increased microtubule polymerization”.

As for `COC(=O)Nc1nc2ccc(C(=O)c3cccs3)cc2[nH]1` [Nocodazole, reference compound], the negative logarithm of the EC50 (pEC50) in assay [5] (read-out: EC50) is above 7.70. Besides, the “effect on microtubule polymerization” value in assay [6] was “decreased microtubule polymerization”.

One may read the pEC50 as the negative decadic logarithm of the EC50, by convention in mol/L.
